Results as given in ChEMBL document CHEMBL1144471, “Structure-activity relationships of 2,N(6),5'-substituted adenosine derivatives with potent activity at the A2B adenosine receptor” (J Med Chem, 2007).
pEC50, pKi: −log10 of the molar value.

What was measured:
Adenosine receptor A3 = target: T1, Adenosine receptor A3 (Homo sapiens, UniProt P0DMS8); assay: Displacement of [125I]I-AB-MECA from human adenosine A3 receptor expressed in CHO cells; format: cell-based
T1 sequence (P0DMS8 whole entry): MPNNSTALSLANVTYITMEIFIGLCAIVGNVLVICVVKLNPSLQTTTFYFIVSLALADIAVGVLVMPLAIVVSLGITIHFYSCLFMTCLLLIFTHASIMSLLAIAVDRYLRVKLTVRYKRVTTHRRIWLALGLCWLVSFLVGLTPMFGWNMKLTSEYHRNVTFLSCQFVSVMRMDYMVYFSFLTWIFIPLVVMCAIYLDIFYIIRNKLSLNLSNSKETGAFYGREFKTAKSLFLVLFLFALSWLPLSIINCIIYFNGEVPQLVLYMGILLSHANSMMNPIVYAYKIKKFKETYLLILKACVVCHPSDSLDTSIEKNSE

[1] = target: T2, Adenosine receptor A3 (Homo sapiens) (UniProt P0DMS8); assay: Maximum efficacy at human recombinant adenosine A3 receptor expressed in CHO cells assessed as inhibition of cAMP production at 10 uM relative to NECA; format: functional, cell-based
T2 sequence (whole entry): T1 sequence (P0DMS8 whole entry)

Adenosine receptor A1 = target: T3, Adenosine receptor A1 (Homo sapiens, UniProt P30542); assay: Displacement of […] from human adenosine A1 receptor expressed in CHO cells; format: cell-based
T3 sequence (P30542 whole entry): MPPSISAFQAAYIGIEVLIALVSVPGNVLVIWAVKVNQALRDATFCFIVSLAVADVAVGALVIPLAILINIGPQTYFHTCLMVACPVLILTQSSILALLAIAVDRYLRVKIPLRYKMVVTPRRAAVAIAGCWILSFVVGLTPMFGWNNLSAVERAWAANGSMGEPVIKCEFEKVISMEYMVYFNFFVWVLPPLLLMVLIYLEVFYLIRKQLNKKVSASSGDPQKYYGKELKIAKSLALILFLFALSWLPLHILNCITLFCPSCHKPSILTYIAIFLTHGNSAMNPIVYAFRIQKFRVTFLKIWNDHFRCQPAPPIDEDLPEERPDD

Adenosine receptor A2a = Adenosine receptor A2a (Homo sapiens, UniProt P29274); assay: biochemical
Description: Displacement of [3H]CGS-21680 from human adenosine A2A receptor expressed in CHO cells

Adenosine receptor A2b = target: T4, Adenosine receptor A2b (Homo sapiens, UniProt P29275); assay: Agonist activity at human adenosine A2B receptor expressed in CHO cells assessed as stimulation of cAMP production
T4 sequence (P29275 whole entry): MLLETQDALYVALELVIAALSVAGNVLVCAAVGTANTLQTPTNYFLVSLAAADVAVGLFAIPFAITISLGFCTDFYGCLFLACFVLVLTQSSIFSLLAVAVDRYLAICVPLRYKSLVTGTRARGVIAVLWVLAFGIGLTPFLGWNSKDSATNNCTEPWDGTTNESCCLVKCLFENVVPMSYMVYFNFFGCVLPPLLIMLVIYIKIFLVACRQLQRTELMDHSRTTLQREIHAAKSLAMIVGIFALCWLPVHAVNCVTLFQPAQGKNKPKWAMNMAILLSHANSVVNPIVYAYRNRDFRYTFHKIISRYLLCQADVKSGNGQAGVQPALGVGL

[2] = target: T5, Adenosine receptor A1 (Homo sapiens) (UniProt P30542); assay: Displacement of […] from human adenosine A1 receptor expressed in CHO cells at 10 uM; format: cell-based
T5 sequence (whole entry): T3 sequence (P30542 whole entry)

[3] = target: T6, Adenosine receptor A2b (Homo sapiens) (UniProt P29275); assay: Agonist activity at human adenosine A2B receptor expressed in CHO cells assessed as stimulation of cAMP production at 10 uM; format: functional, cell-based
T6 sequence (whole entry): T4 sequence (P29275 whole entry)

Chain of Adenosine receptor A2a (P29274 whole entry): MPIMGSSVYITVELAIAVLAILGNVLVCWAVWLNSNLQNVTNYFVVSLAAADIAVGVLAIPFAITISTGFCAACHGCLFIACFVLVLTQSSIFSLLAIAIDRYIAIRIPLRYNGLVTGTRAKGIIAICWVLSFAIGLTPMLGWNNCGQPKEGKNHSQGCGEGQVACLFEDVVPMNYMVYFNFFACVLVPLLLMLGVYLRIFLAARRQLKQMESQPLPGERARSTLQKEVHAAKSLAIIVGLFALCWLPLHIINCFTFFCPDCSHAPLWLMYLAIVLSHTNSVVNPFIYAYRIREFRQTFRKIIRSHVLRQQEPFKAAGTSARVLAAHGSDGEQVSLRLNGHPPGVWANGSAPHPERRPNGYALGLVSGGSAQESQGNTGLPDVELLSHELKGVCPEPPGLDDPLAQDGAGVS

SMILES: COc1ccc2[nH]cc(CCOc3nc(N)c4ncn([C@@H]5O[C@H](CO)[C@@H](O)[C@H]5O)c4n3)c2c1
- pKi (Adenosine receptor A3): 6.44
- Efficacy [1]: -3%
- pKi (Adenosine receptor A1): 5.74
- pKi (Adenosine receptor A2a): 5.85
- pEC50 (Adenosine receptor A2b): 5.90

SMILES: Cc1ccc(S(=O)(=O)n2cc(CCOc3nc(NC(=N)N)c4ncn([C@@H]5O[C@H](CO)[C@@H](O)[C@H]5O)c4n3)c3ccccc32)cc1
- pKi (Adenosine receptor A3): 6.34
- Efficacy [1]: 24%
- pKi (Adenosine receptor A2a): 6.46
- inhibition [2]: 52%
- Activity [3]: 42%

SMILES: CCNC(=O)[C@H]1O[C@@H](n2cnc3c(NC(=N)N)ncnc32)[C@H](O)[C@@H]1O
- Efficacy [1]: 100%

SMILES: Nc1nc(OCCc2c[nH]c3cc(Cl)ccc23)nc2c1ncn2[C@@H]1O[C@H](CO)[C@@H](O)[C@H]1O
- Efficacy [1]: 2%
- pKi (Adenosine receptor A2a): 7.53
- pEC50 (Adenosine receptor A2b): 6.67

SMILES: Nc1nc(OCCc2cccc(F)c2)nc2c1ncn2[C@@H]1O[C@H](CO)[C@@H](O)[C@H]1O
- pKi (Adenosine receptor A3): 6.92
- Efficacy [1]: 50%
- pKi (Adenosine receptor A1): 6.51
- pKi (Adenosine receptor A2a): 7.16
- Activity [3]: 64%

SMILES: Nc1nc(OCCc2c[nH]c3ccc(F)cc23)nc2c1ncn2[C@@H]1O[C@H](CO)[C@@H](O)[C@H]1O
- pKi (Adenosine receptor A3): 6.31
- Efficacy [1]: -1%
- pKi (Adenosine receptor A1): 6.82
- pKi (Adenosine receptor A2a): 6.43
- pEC50 (Adenosine receptor A2b): 6.12

SMILES: Cc1ccc(S(=O)(=O)n2c(CCOc3nc(N)c4ncn([C@@H]5O[C@H](CO)[C@@H](O)[C@H]5O)c4n3)cc3ccccc32)cc1
- pKi (Adenosine receptor A3): 6.21
- Efficacy [1]: 30%
- pKi (Adenosine receptor A2a): 5.59
- inhibition [2]: 47%
- Activity [3]: 32%

SMILES: Nc1nc(OCCCc2ccccc2)nc2c1ncn2[C@@H]1O[C@H](CO)[C@@H](O)[C@H]1O
- pKi (Adenosine receptor A3): 7.18
- Efficacy [1]: 42%
- pKi (Adenosine receptor A1): 6.02
- pKi (Adenosine receptor A2a): 6.30
- Activity [3]: 29%

SMILES: Nc1nc(OCCc2ccccc2)nc2c1ncn2[C@@H]1O[C@H](CO)[C@@H](O)[C@H]1O
- pKi (Adenosine receptor A3): 7.27
- Efficacy [1]: 71%
- pKi (Adenosine receptor A1): 6.66
- pKi (Adenosine receptor A2a): 8.03
- pEC50 (Adenosine receptor A2b): 5.46

SMILES: Nc1nc(OCCc2ccc(F)cc2)nc2c1ncn2[C@@H]1O[C@H](CO)[C@@H](O)[C@H]1O
- pKi (Adenosine receptor A3): 6.95
- Efficacy [1]: 74%
- pKi (Adenosine receptor A1): 6.33
- pKi (Adenosine receptor A2a): 7.25
- Activity [3]: 11%

SMILES: Nc1nc(OCCc2ccsc2)nc2c1ncn2[C@@H]1O[C@H](CO)[C@@H](O)[C@H]1O
- pKi (Adenosine receptor A3): 7.00
- Efficacy [1]: 62%
- pKi (Adenosine receptor A1): 6.55
- pKi (Adenosine receptor A2a): 7.88
- Activity [3]: 9%

SMILES: CCNC(=O)[C@H]1O[C@@H](n2cnc3c(N)nc(OCCc4c[nH]c5ccccc45)nc32)[C@H](O)[C@@H]1O
- pKi (Adenosine receptor A3): 6.96
- Efficacy [1]: 102%
- pKi (Adenosine receptor A1): 6.72
- pKi (Adenosine receptor A2a): 6.60
- pEC50 (Adenosine receptor A2b): 6.00

SMILES: N=C(N)Nc1nc(OCCc2c[nH]c3ccccc23)nc2c1ncn2[C@@H]1O[C@H](CO)[C@@H](O)[C@H]1O
- pKi (Adenosine receptor A3): 7.05
- Efficacy [1]: 58%
- pKi (Adenosine receptor A1): 7.13
- pKi (Adenosine receptor A2a): 6.56
- Activity [3]: 40%

SMILES: Nc1nc(OCCc2cccs2)nc2c1ncn2[C@@H]1O[C@H](CO)[C@@H](O)[C@H]1O
- pKi (Adenosine receptor A3): 7.03
- Efficacy [1]: 80%
- pKi (Adenosine receptor A1): 6.76
- pKi (Adenosine receptor A2a): 7.96
- pEC50 (Adenosine receptor A2b): 5.75

SMILES: Nc1nc(OCCCCc2ccccc2)nc2c1ncn2[C@@H]1O[C@H](CO)[C@@H](O)[C@H]1O
- pKi (Adenosine receptor A3): 6.45
- Efficacy [1]: 37%
- pKi (Adenosine receptor A1): 5.69
- pKi (Adenosine receptor A2a): 6.28
- Activity [3]: 3%

SMILES: CCOc1nc(N)c2ncn([C@@H]3O[C@H](CO)[C@@H](O)[C@H]3O)c2n1
- pKi (Adenosine receptor A3): 6.25
- Efficacy [1]: 99%
- pKi (Adenosine receptor A1): 5.58
- pKi (Adenosine receptor A2a): 6.44
- Activity [3]: -1%

SMILES: Nc1nc(OCCc2ccccc2F)nc2c1ncn2[C@@H]1O[C@H](CO)[C@@H](O)[C@H]1O
- pKi (Adenosine receptor A3): 7.11
- Efficacy [1]: 45%
- pKi (Adenosine receptor A1): 6.48
- pKi (Adenosine receptor A2a): 7.24
- Activity [3]: 12%

SMILES: Nc1nc(OCCc2c[nH]c3ccc(Cl)cc23)nc2c1ncn2[C@@H]1O[C@H](CO)[C@@H](O)[C@H]1O
- pKi (Adenosine receptor A3): 6.53
- Efficacy [1]: -4%
- pKi (Adenosine receptor A1): 6.89
- pKi (Adenosine receptor A2a): 6.41
- pEC50 (Adenosine receptor A2b): 5.66

SMILES: Nc1nc(OCCc2c[nH]c3ccccc23)nc2c1ncn2[C@@H]1O[C@H](CO)[C@@H](O)[C@H]1O
- pKi (Adenosine receptor A3): 6.63
- Efficacy [1]: 17%
- pKi (Adenosine receptor A1): 6.83
- pKi (Adenosine receptor A2a): 7.35
- pEC50 (Adenosine receptor A2b): 6.52

SMILES: Nc1nc(OCCc2c[nH]c3c(Br)cccc23)nc2c1ncn2[C@@H]1O[C@H](CO)[C@@H](O)[C@H]1O
- pKi (Adenosine receptor A3): 6.85
- Efficacy [1]: -8%
- pKi (Adenosine receptor A1): 6.68
- pKi (Adenosine receptor A2a): 6.60
- Activity [3]: 43%

SMILES: Nc1nc(OCCc2c[nH]c3ccc(I)cc23)nc2c1ncn2[C@@H]1O[C@H](CO)[C@@H](O)[C@H]1O
- pKi (Adenosine receptor A3): 6.96
- Efficacy [1]: -5%
- pKi (Adenosine receptor A1): 6.46
- pKi (Adenosine receptor A2a): 6.05
- pEC50 (Adenosine receptor A2b): 5.73

SMILES: Nc1nc(OCCc2ccc3ccccc3c2)nc2c1ncn2[C@@H]1O[C@H](CO)[C@@H](O)[C@H]1O
- pKi (Adenosine receptor A3): 6.89
- Efficacy [1]: 45%
- pKi (Adenosine receptor A1): 6.85
- pKi (Adenosine receptor A2a): 7.79
- pEC50 (Adenosine receptor A2b): 5.84

SMILES: Nc1nc(OCCc2cc[nH]c2)nc2c1ncn2[C@@H]1O[C@H](CO)[C@@H](O)[C@H]1O
- pKi (Adenosine receptor A3): 6.98
- Efficacy [1]: 75%
- pKi (Adenosine receptor A1): 6.66
- pKi (Adenosine receptor A2a): 7.02
- pEC50 (Adenosine receptor A2b): 5.59

SMILES: Nc1nc(OCCc2cc3ccccc3[nH]2)nc2c1ncn2[C@@H]1O[C@H](CO)[C@@H](O)[C@H]1O
- pKi (Adenosine receptor A3): 6.29
- Efficacy [1]: 37%
- pKi (Adenosine receptor A1): 6.71
- pKi (Adenosine receptor A2a): 6.43
- Activity [3]: 49%

SMILES: Nc1nc(OCCc2c[nH]c3ccc(O)cc23)nc2c1ncn2[C@@H]1O[C@H](CO)[C@@H](O)[C@H]1O
- pKi (Adenosine receptor A3): 6.92
- Efficacy [1]: 24%
- pKi (Adenosine receptor A1): 6.51
- pKi (Adenosine receptor A2a): 6.35
- pEC50 (Adenosine receptor A2b): 6.05

SMILES: Nc1nc(OCCc2c[nH]c3cccc(Br)c23)nc2c1ncn2[C@@H]1O[C@H](CO)[C@@H](O)[C@H]1O
- pKi (Adenosine receptor A3): 6.59
- Efficacy [1]: -5%
- pKi (Adenosine receptor A1): 6.35
- pKi (Adenosine receptor A2a): 7.40
- Activity [3]: 16%

SMILES: C[C@@H](CCOc1nc(N)c2ncn([C@@H]3O[C@H](CO)[C@@H](O)[C@H]3O)c2n1)c1ccccc1
- pKi (Adenosine receptor A3): 6.51
- Efficacy [1]: 18%
- pKi (Adenosine receptor A1): 5.81
- pKi (Adenosine receptor A2a): 6.38
- Activity [3]: 13%

SMILES: Nc1nc(OCCc2c[nH]c3ccc(Br)cc23)nc2c1ncn2[C@@H]1O[C@H](CO)[C@@H](O)[C@H]1O
- pKi (Adenosine receptor A3): 6.63
- Efficacy [1]: 1%
- pKi (Adenosine receptor A1): 6.45
- pKi (Adenosine receptor A2a): 6.30
- pEC50 (Adenosine receptor A2b): 6.44
